The test system of the experiment is AP-1 induced transcriptional activity. The experiment can be described thus: Cellular Transrepressional Assay (AP-1 luciferase reporter, PMA-activated A549 cells). In kind it is cell-based. The conditions noted are these: for AP-1 Max % inh (Cellular Transrepression Assay) / Emax: maximum inhibition; for Emax: A549, 7 h, read-out: AP-1 Max % inh (Cellular Transrepression Assay). As to the method: Cellular Transrepressional Assay
To measure the ability of test molecules to inhibit AP-1 induced transcriptional activity we utilized an A549 cell which was stably transfected with a plasmid containing 7× AP-1 DNA binding sites (pAP-1-Luc plasmid, Stratagene Co. La Jolla, Calif.) followed by the gene for luciferase. Cells were activated with 10 ng/ml of […] (PMA) plus or minus test molecules for 7 hours. After 7 hours a luciferase reagent was added to measure luciferase enzymatic activity in the cell. After a 10 minute incubation of luciferase reagent with cells, luminescence was measured in a TopCount luminescence counter. Repression of AP-1 activity was calculated as the percentage decrease in the signal induced by PMA alone. Test molecules were analyzed in the concentration range from 0.1 nM to 40 μM. EC50s were determined by using standard curve fitting methods such as Excel fit (Microsoft Co.).
Background: Reporter assays use an easily measured gene product as a stand-in for the process of interest.

Setting [1] is: Homo sapiens, Cellular Transrepression Assay.
Setting [2] is: Homo sapiens, A549, Cellular Transrepression Assay.

Each structure is given as a SMILES string. Read-outs that look alike come from different tables or passages of the source.

By EC50 is commonly meant the midpoint of the concentration-response curve. Turning to `Cc1nnc(NC(=O)C(C)(C)C2c3ccc(-c4ccc(C(=O)N(C)C)c(F)c4)nc3Oc3c(F)cccc32)s1` (racemic) [Example 167], where the note is “Cellular Transrepression Assay”, the response was half-maximal at 36.6 nM (EC50) and the “AP-1 Max % inh (Cellular Transrepression Assay)” value (from here on “AP-1 Max % inh”) was found to be 57.94%.
As for `Cc1nsc(NC(=O)C(C)(C)[C@H]2c3ccccc3Oc3nc(-c4ccc(C(=O)N(C)C)cc4)ccc32)n1` [Example 449], the Emax under setting [1] was 48.9%. For the same compound, a half-maximal effect under setting [2] (EC50) was put at 126 nM.
On the same counts, the results for `CC(C)(C(=O)Nc1nnc(C(=O)NC2CC2)s1)[C@H]1c2ccccc2Oc2nc(-c3ccc(C(=O)N4CCCC4)c(F)c3)ccc21` [Example 422] are 41.6% and 84.1 nM.
As to `CC(C)(C(=O)Nc1nncs1)[C@H]1c2ccccc2Oc2nc(-c3ccc(C(=O)N4CC(F)(F)C(F)(F)C4)c(F)c3)ccc21` [Example 337], under setting [1], the Emax was 51.5%. Besides, under setting [2], a half-maximal response (EC50) required 103 nM.
On the same counts, the results for `CN(C)C(=O)c1ccc(-c2ccc3c(n2)Oc2ccccc2C3C(C)(C)C(=O)NC2=NCCS2)cc1` (centres unmarked) [Example 442] are 50.1% and 127 nM.
For `CC(C)(C(=O)Nc1nc(Cc2ccc(-c3ccncc3)cc2)cs1)C1c2ccccc2Oc2ccccc21` [Example 34], the Emax under setting [1] is 71.8%. The same compound returned a 50% effective concentration (EC50) under setting [2] of 3.52 nM.
On the same counts, the results for `CC(C)(C(=O)Nc1nc(-c2ccc(F)c3ccccc23)cs1)C1c2ccccc2Oc2ccccc21` [Example 32] are 67.6% and 302 nM.
On the same counts, the results for `CC(C)(C(=O)Nc1nc(-c2cccc3ccccc23)cs1)C1c2ccccc2S(=O)(=O)c2ccccc21` [Example 12] are 67.9% and 461 nM.
Turning to `CC(C)(C(=O)Nc1nc(-c2ccc(F)c3ccccc23)cs1)C1c2ccccc2Sc2ccccc21` [Example 8], the Emax under setting [1] stood at 69%. The same compound had an EC50 under setting [2] of 546 nM.
`CC(C)(C(=O)Nc1nncs1)[C@H]1c2ccccc2Oc2nc(-c3ccc(C(=O)N4CCCC4)c(F)c3)ccc21` [Example 333]: for the setting “Cellular Transrepression Assay”, it took 24.7 nM to reach a half-maximal effect (EC50) and the “AP-1 Max % inh” value amounted to 52.71%.
For the compound `CC(C)(C(=O)Nc1nncs1)[C@H]1c2ccccc2Oc2nc(-c3ccc(C(=O)N4CCCCC4)c(F)c3)ccc21` [Example 249], under “Cellular Transrepression Assay”, the concentration giving a half-maximal response (EC50) amounted to 11.2 nM and the “AP-1 Max % inh” value is 42.38%.
`CC(C)(C(=O)Nc1nncs1)C1c2ccccc2Oc2nc(N3CCOCC3)ccc21` (centres unmarked) [Example 129]: the Emax under setting [1] stood at 39.5%. Moreover, the half-maximal effective concentration (EC50) under setting [2] was found to be 307 nM.
On the same counts, the results for `CC(C)(C(=O)Nc1ncc(C#N)s1)[C@H]1c2ccccc2Oc2nc(-c3ccc(C(=O)N4CCCC4)c(F)c3)ccc21` [Example 410] are 48.1% and 53.3 nM.
As to `CN(C)C(=O)c1cnc(-c2ccc3c(c2)Oc2ccccc2C3C(C)(C)C(=O)Nc2nncs2)nc1` (centres unmarked) [Example 109], the Emax under setting [1] was 60.2%. The concentration giving a half-maximal response (EC50) under setting [2] was found to be 182 nM.
For the compound `CCN(CC)C(=O)c1ccc(-c2ccc3c(n2)Oc2ccccc2[C@@H]3C(C)(C)C(=O)Nc2nncs2)cc1Cl` [Example 263], the Emax under setting [1] worked out at 58%. The same compound displayed an EC50 under setting [2] of 15.4 nM.
On the same counts, the results for `O=C(CC1c2ccccc2Oc2ccccc21)Nc1nc(Cc2ccc(-c3ccncc3)cc2)cs1` [Example 1] are 69.3% and 157 nM.
On the same counts, the results for `COc1ccc2c(n1)Oc1ccccc1C2C(C)(C)C(=O)Nc1nc(Cc2ccc(-c3ccncc3)cc2)cs1` (centres unmarked) [Example 79] are 62.3% and 9.42 nM.
`COc1cccc2c1Oc1ccccc1C2C(C)(C)C(=O)Nc1nc(-c2ccc(F)c3ccccc23)cs1` (centres unmarked) [Example 82]: the Emax under setting [1] was 72.6%. Moreover, the 50% effective concentration (EC50) under setting [2] came to 126 nM.
Consider `CC(C)(C(=O)Nc1nncs1)[C@H]1c2ccccc2Oc2cc(OC(=O)NCc3ccccc3)ccc21` [Example 369, (s)-9-(1-(1,3,4-thiadiazole-2ylamino)-2-methyl-1-oxopropan-2-yl)-9H-xanthen-3-yl benzylcarbamate], for which the Emax under setting [1] was 55.5%. This compound had an EC50 under setting [2] of 33 nM.
For `Cc1ccc(-c2ccc3c(n2)Oc2ccccc2C3C(C)(C)C(=O)Nc2nncs2)cc1` (centres unmarked) [Example 170], where the note is “Cellular Transrepression Assay”, the concentration for a half-maximal effect (EC50) amounted to 182 nM and the “AP-1 Max % inh” value was determined as 44.12%.
As to `CC(C)Oc1ccc(-c2ccc3c(n2)Oc2ccccc2[C@@H]3C(C)(C)C(=O)Nc2nccs2)cc1F` [Example 246], the Emax under setting [1] worked out at 81.8%. Besides, a half-maximal response under setting [2] (EC50) required 325 nM.
Take `CC(C)(C(=O)Nc1ncc(S(C)(=O)=O)s1)[C@H]1c2ccccc2Oc2nc(-c3ccc(C(=O)N4CCCC4)c(F)c3)ccc21` [Example 426]: the Emax under setting [1] is 31.8%. Moreover, the EC50 under setting [2] stood at 117 nM.
Consider `COc1ccc2c(c1)Oc1ccccc1[C@H]2C(C)(C)C(=O)Nc1nc(Cc2ccc(-c3cccnc3)cc2)cs1` [Example 55], for which the Emax under setting [1] is 75.5%. Besides, under setting [2], the EC50 stood at 21.5 nM.
For the compound `COc1ccc(NC(=O)c2cccc(-c3csc(NC(=O)C(C)(C)C4c5ccccc5Oc5ccccc54)n3)c2)cc1Cl` [Example 29], under setting [1], the Emax was 66.4%. Further, the EC50 under setting [2] came out at 139 nM.
Consider `CNC(=O)Oc1ccc2c(c1)Oc1ccccc1C2C(C)(C)C(=O)Nc1nncs1` (centres unmarked) [Example 386], for which the Emax under setting [1] came out at 34.3%. For the same compound, the EC50 (Homo sapiens, A549, read-out: AP-1 EC50, nM (Cellular Transrepression Assay)) worked out at 89 nM.
Consider `CC(C)(C(=O)Nc1nc(Cc2ccc(-c3cn[nH]c3)cc2)cs1)C1c2ccccc2Oc2ccccc21` [Example 41], for which the Emax under setting [1] came out at 73.8%. Moreover, the 50% effective concentration (EC50) under setting [2] worked out at 5.82 nM.
On the same counts, the results for `COC[C@H]1CCCN1C(=O)c1ccc(-c2ccc3c(n2)Oc2ccccc2[C@@H]3C(C)(C)C(=O)Nc2nncs2)cc1F` [Example 325] are 56.1% and 90.2 nM.
As for `CCCCOc1ccc(-c2ccc3c(n2)Oc2ccccc2C3C(C)(C)C(=O)Nc2nncs2)cc1` (centres unmarked) [Example 210], for the setting “Cellular Transrepression Assay”, the EC50 stood at 77.7 nM and the “AP-1 Max % inh” value is given as 39.38%.
On to `CC(C)(C(=O)Nc1ncc([N+](=O)[O-])s1)[C@H]1c2ccccc2Oc2nc(-c3ccc(C(=O)N4CCCC4)c(F)c3)ccc21` [Example 411], for which the Emax under setting [1] worked out at 58.5%. Besides, under setting [2], the EC50 worked out at 161 nM.
With `COC1CCN(C(=O)c2ccc(-c3ccc4c(n3)Oc3ccccc3[C@@H]4C(C)(C)C(=O)Nc3nncs3)cc2)CC1` [Example 309], where the note is “Cellular Transrepression Assay”, the EC50 was 41.5 nM and the “AP-1 Max % inh” value turned out to be 34.95%.
Regarding `CC(C)(C(=O)Nc1nnc(N)s1)[C@H]1c2ccccc2Oc2nc(-c3ccc(C(=O)N4CCCC4)c(F)c3)ccc21` [Example 428], the Emax under setting [1] was 26.9%. Under setting [2], the response was half-maximal at 30.3 nM (EC50).
As for `CCNC(=O)c1nnc(NC(=O)C(C)(C)[C@H]2c3ccccc3Oc3nc(-c4ccc(C(=O)N5CCCC5)c(F)c4)ccc32)s1` [Example 421], the Emax under setting [1] is 42.6%. A half-maximal response under setting [2] (EC50) required 49.8 nM.
On the same counts, the results for `CN(C)C(=O)c1ccc(-c2ccc3c(n2)Oc2ccccc2C3C2(C(=O)Nc3ncns3)CCCC2)cc1` (centres unmarked) [Example 485] are 38.9% and 42.4 nM.
On the same counts, the results for `COc1cccc2c1Oc1ccccc1C2C(C)(C)C(=O)Nc1nc(Cc2ccc(-c3ccncc3)cc2)cs1` (centres unmarked) [Example 83] are 69.6% and 15 nM.
On the same counts, the results for `CC(C)(C(=O)Nc1nncs1)[C@H]1c2ccccc2Oc2nc(-c3ccc(C(=O)N4CCC(F)(F)C4)c(F)c3)ccc21` [Example 335] are 56% and 37.9 nM.
Consider `Cc1nnc(NC(=O)C(C)(C)[C@H]2c3ccccc3Oc3nc(-c4ccc(C(=O)N5CCOCC5)cc4)ccc32)s1` [Example 465], for which the Emax under setting [1] came out at 61.5%. Further, the response under setting [2] was half-maximal at 16.6 nM (EC50).
For the compound `COc1ccc(Cc2csc(NC(=O)C(C)(C)C3c4ccccc4Oc4c(OCCN(C)C)cccc43)n2)cc1` (centres unmarked) [Example 85], the Emax under setting [1] is 88.4%.
`CC(C)(C(=O)Nc1nncs1)C1c2ccccc2Oc2cc(OC(=O)NCc3ccccc3)ccc21` (centres unmarked) [Example 389]: for the setting “Cellular Transrepression Assay”, the 50% effective concentration (EC50) stood at 50.5 nM and the “AP-1 Max % inh” value was 55.20%.
As for `CC(C)(C(=O)Nc1nc(-c2cccc3ccccc23)cs1)C1c2ccccc2Sc2ccccc21` [Example 6], the Emax under setting [1] came to 67.9%. In addition, it took 461 nM to reach a half-maximal effect under setting [2] (EC50).
On to `CCc1nnc(NC(=O)C(C)(C)[C@H]2c3ccccc3Oc3nc(-c4ccc(C(=O)N(C)C)cc4)ccc32)s1` [Example 447], for which the Emax under setting [1] was 53%. Under setting [2], the EC50 is 95.4 nM.
As to `CC(C)(C(=O)Nc1nc(-c2cccc3ccccc23)cs1)C1c2ccccc2-c2ccccc21` [Example 19], the Emax under setting [1] was 52.7%.
Regarding `CC(C)(C(=O)Nc1nncs1)[C@H]1c2ccccc2Oc2nc(-c3ccc(C(=O)N4CCC[C@@H]4CO)cc3)ccc21` [Example 331], the Emax under setting [1] was found to be 36.3%. For the same compound, the response under setting [2] was half-maximal at 33.7 nM (EC50).
As to `CC(C)(C(=O)Nc1nccs1)C1c2ccccc2Oc2nc(N)ccc21` (centres unmarked) [Example 158], the Emax under setting [1] was determined as 62.5%. Under setting [2], this compound returned an EC50 of 200 nM.
Turning to `CCCOc1ccc(-c2ccc3c(n2)Oc2ccccc2C3C(C)(C)C(=O)Nc2nncs2)cc1` (centres unmarked) [Example 217], under “Cellular Transrepression Assay”, the EC50 is 41 nM and the “AP-1 Max % inh” value was determined as 45.81%.
Take `COc1ccc2c(c1)Oc1ccccc1C2C(C)(C)C(=O)Nc1nc(-c2cccc3ccccc23)cs1` (centres unmarked) [Example 52]: under setting [1], the Emax was found to be 70.8%. Besides, under setting [2], the EC50 was found to be 213 nM.
Take `CC(C)(C(=O)Nc1nncs1)C1c2ccccc2Oc2cc(OC(=O)NCCc3ccc(F)cc3)ccc21` (centres unmarked) [Example 381]: where the note is “Cellular Transrepression Assay”, the EC50 worked out at 45.2 nM and the “AP-1 Max % inh” value is recorded as 52.00%.
Take `Cc1ccc(-c2csc(NC(=O)C(C)(C)C3c4ccccc4Cc4ccccc43)n2)c2ccccc12` [Example 16]: the Emax under setting [1] was 59.9%. Also, the EC50 under setting [2] was 303 nM.
